Experimental data as given in patent US6403084B1, “Mixed cultures for improved fermentation and aerobic stability of silage” (Pioneer Hi-Bred International, Inc., priority 2000, dated 2002).

Legend:
[1] = Aerobic stability of inoculated whole plant corn silage (WPCS fall field trials, PVC silos)
Protocol: Whole plant corn forage was harvested at approximately 2/3 milk line with a 2-row pull type forage chopper. Theoretical chop length was […].
A 30 cc syringe fitted with a 16-gauge needle was used to apply the inoculants to the forage at a rate of 1 ml/lb. The inoculants were mixed with the forage by rolling on clean plastic.
For each treatment two 4″×14″ PVC silos with air infusion holes near the top and bottom of the silo were filed with 1123 g, 1173 g, 1271 g, 1144 g, 1459 g, 1278 g, 1207 g and 1097 g of forage. Experimental silos were fitted with rubber quick caps at each end, the top having a bunsen valve to allow gas to escape. The silos were then weighed for dry matter recovery. After filing, the silos were kept in an environmentally controlled room until opening and air infused for 24 hours on day 28.
Three pre-ensiled forage samples were taken while filling during each trial for pH and microbial analysis. Lactic acid bacteria (LAB) were enumerated on modified MRS agar and yeasts and molds on Sabouraud Dextrose agar. Dry matter was determined by drying to a constant weight for 72 hours at 55° C. in a forced air oven. Inoculum was plated on modified MRS agar. Silos were opened after 50 days emptied and mixed. Samples were taken for pH, DM and aerobic stability analyses.
(§1) Aerobic stability was determined by placing 100 g of dry matter of silage into a plastic tub with holes in the lid and bottom, placing a temperature probe in the center of the silage mass and placing the tub into a styrofoam cooler (Honig, Das Wirtschaftseigene Futter (1975) 21:25-32). The coolers were then kept in a temperature-controlled room where the ambient temperature and silage temperature were recorded by a datalogger every three hours for one week. DM was determined as per the pre-ensiled samples. Frozen samples of selected samples were submitted for VFA analysis according to standard protocols.

[2] = Aerobic stability of inoculated high moisture corn silage (1999 HMC field trials, PVC silos)
Protocol: High moisture corn was harvested by combine at 22 to 28% moisture. Harvested grain was processed with a roller mill with rollers set at a gap width of approximately 3 mm.
Inoculants were formulated to deliver the appropriate rate as give in Table 2. A 30 cc syringe fitted with a 16-gauge needle was used to apply the inoculants to the forage at a rate of 1 ml/lb. The inoculants were mixed with the forage by rolling on clean plastic.
For each treatment two 4″×14″ PVC silos with air infusion holes near the top and bottom of the silo were filled with 2.5 kg of forage. Experimental silos were fitted with rubber quick caps at each end, the top having a bunsen valve to allow gas to escape. The silos were then kept in an environmentally controlled room until opening.
Two pre-ensiled forage samples were taken while filling during each trial for pH and microbial analysis. Lactic acid bacteria (LAB) were enumerated on modified DeMann-Rogosa-Sharpe (MRS) agar and yeasts and molds on Sabouraud Dextrose agar. Dry matter (DM) was determined by drying to a constant weight for 72 hours at 55° C. in a forced air oven. Inoculum was plated on modified MRS agar. Silos were opened after approximately 60 days, emptied and mixed. Samples were taken for pH, DM, digestibility, and aerobic stability analyses.
as §1, with “stabilty” for “stability”, “500” for “100”, “g” for “g of dry matter”, “Dried” for “Frozen”, “from the DM determination” for “of selected samples”, “ground through a 4 mm Wiley Mill screen and scanned by near infrared spectroscopy (NIRS).” for “submitted for VFA analysis according to standard protocols.”

For CCC(=O)O [PROP, Propionic acid], the Loss ([1]; number of WPCS trials (of 8) with 24 hour decrease in stability compared to control) was 2, the Win ([1]; number of WPCS trials (of 8) with 24 hour increase in stability compared to control) was 3 and the “No Effect” value ([1]; number of WPCS trials (of 8) with no effect) was 3. The “improvement of aerobic stability” value [2] was 94 h, the “improvement of aerobic stability (in words)” value [2] was “effective in all trials” and the Loss ([2]; number of HMC field trials with 24 hour decrease in stability compared to control) was 0. The Win ([2]; number of HMC field trials with 24 hour increase in stability compared to control) was 8 and the “No Difference” value ([2]; number of HMC field trials with no difference from control) was 0.
